Laboratory results reported in publication PMC3914206.

Assays:
panel of 442 kinases [1] = biological target: T1, panel of 442 kinases (Homo sapiens, UniProt P36888, D835H); format: binding; conditions: Compound Concentration 10 µM
T1 construct: purchased KINOMEscan
T1 sequence (P36888 27-993 D835H): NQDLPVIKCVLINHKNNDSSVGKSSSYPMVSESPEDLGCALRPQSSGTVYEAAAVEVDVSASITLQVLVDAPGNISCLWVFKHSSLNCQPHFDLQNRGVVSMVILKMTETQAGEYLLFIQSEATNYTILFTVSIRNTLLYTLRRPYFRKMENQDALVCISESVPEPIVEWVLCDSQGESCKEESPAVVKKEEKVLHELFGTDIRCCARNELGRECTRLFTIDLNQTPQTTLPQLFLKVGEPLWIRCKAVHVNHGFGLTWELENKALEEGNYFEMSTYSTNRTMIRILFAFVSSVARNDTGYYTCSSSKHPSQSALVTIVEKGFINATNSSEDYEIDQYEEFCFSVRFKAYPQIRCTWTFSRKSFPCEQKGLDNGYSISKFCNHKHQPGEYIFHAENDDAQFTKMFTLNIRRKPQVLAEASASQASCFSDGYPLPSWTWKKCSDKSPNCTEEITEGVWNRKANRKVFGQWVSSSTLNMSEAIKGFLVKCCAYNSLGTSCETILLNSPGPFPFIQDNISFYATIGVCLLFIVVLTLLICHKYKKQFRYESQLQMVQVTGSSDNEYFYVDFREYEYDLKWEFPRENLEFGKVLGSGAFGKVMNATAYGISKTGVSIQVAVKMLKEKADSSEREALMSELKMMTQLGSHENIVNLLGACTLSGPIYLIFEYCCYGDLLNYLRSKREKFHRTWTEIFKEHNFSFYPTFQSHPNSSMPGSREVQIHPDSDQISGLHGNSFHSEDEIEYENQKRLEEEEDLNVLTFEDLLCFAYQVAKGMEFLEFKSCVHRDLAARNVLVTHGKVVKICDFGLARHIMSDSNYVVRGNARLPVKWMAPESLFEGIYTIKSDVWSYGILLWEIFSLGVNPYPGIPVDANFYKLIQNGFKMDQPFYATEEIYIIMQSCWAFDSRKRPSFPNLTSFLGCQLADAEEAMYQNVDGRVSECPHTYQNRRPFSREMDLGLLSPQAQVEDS
Source text: (§1) We assessed the selectivity of members of this scaffold using the KINOMEscan methodology across a near comprehensive panel of 442 kinases [[18,27]].

panel of 442 kinases [2] = biological target: T2, panel of 442 kinases (Homo sapiens, UniProt O00750); format: binding; conditions: Compound Concentration 10 µM
T2 construct: purchased KINOMEscan
Source text: as §1

T2 sequence (O00750 whole entry): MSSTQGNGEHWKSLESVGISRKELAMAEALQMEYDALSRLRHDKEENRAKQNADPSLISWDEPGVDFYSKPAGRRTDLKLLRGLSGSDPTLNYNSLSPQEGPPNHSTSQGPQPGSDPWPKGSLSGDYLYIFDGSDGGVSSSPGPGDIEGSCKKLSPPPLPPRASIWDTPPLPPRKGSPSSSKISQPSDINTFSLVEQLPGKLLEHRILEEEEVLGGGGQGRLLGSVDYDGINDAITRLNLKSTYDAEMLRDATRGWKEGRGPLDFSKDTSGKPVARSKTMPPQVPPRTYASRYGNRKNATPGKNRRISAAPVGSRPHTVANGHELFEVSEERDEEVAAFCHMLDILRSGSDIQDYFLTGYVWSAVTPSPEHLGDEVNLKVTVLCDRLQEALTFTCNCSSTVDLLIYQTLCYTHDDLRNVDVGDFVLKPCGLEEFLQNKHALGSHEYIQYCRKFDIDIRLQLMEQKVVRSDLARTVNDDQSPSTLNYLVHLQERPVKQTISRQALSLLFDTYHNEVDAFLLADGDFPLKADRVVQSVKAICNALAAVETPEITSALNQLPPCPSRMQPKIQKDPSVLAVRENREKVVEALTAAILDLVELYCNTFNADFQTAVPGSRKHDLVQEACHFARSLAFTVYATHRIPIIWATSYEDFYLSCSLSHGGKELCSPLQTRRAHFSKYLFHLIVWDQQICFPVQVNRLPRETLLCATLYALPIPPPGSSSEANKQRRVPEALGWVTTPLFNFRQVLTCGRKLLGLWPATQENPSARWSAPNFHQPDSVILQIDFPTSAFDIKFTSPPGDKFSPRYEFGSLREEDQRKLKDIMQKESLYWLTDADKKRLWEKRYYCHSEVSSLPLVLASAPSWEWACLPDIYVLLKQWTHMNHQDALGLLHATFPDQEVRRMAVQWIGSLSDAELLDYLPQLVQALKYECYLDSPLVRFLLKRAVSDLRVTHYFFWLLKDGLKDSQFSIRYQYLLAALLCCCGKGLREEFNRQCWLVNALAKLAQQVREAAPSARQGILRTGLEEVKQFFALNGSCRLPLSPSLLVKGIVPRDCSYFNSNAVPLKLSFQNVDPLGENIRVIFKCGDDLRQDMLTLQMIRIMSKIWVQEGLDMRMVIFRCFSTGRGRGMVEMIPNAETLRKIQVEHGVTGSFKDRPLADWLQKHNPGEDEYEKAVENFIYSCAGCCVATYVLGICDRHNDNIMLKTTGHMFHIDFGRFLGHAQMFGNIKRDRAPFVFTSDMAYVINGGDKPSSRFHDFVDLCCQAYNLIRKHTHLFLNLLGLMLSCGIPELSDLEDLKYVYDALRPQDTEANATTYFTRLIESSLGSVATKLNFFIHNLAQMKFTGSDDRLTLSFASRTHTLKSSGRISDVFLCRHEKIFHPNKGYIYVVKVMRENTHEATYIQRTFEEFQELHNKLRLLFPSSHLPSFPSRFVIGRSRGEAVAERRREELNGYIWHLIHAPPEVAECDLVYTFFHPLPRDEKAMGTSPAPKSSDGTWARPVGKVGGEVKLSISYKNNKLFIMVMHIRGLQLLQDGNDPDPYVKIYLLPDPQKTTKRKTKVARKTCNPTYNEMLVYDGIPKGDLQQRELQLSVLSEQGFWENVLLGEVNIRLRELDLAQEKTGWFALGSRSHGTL

| Compound | KINOMEscan: FLT3(D835H) (panel of 442 kinases [1]) | KINOMEscan: PIK3C2B (panel of 442 kinases [2]) |
| --- | --- | --- |
| CCOc1cc(C(=O)N2CCC(N3CCN(C)CC3)CC2)ccc1Nc1ncc2c(n1)N(C1CCCC1)c1ccccc1C(=O)N2C [Compound 26] | 100 | 100 |
| COc1cc(C(=O)N2CCC(N3CCN(C)CC3)CC2)ccc1Nc1ncc2c(n1)N(C1CCCC1)c1ccccc1C(=O)N2C [Compound 25, 11-cyclopentyl-2-((2-methoxy-4-(4-(4-methylpiperazin-1-yl)piperidine-1-carbonyl)phenyl)amino)-5-methyl-5H-benzo[e]pyrimido[5,4-b][1,4]diazepin-6(11H)-one] | 100 | 100 |
| COc1cc(C(=O)N2CCC(N3CCN(C)CC3)CC2)ccc1Nc1ncc2c(n1)N(C)c1ccccc1C(=O)N2C [15 (LRRK2-IN-1)] | 100 | 100 |
